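At the GI50, growth is halved. Definition used: TGI = concentration required for complete inhibition of growth.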
Legend:
Assay in all cases: inhibition of tumour cell growth, NCI panel, 384-well format
[1] = system: NCI-H322M lung
[2] = system: SN12C renal
[3] = system: HT29 colon
[4] = system: LOX IMVI melanoma
[5] = system: NCI-H460 NSCLC
[6] = system: SK-MEL-28 melanoma
[7] = system: A498 renal
[8] = system: RXF 393 renal
[9] = system: K-562 leukemia
[10] = system: DU-145 prostate
[11] = system: KM12 colon
[12] = system: HCC-2998 colon
[13] = system: PC-3 prostate
[14] = system: SF-268 CNS
[15] = system: NCI-H226 lung
[16] = system: TK-10 renal
[17] = system: NCI-H23 lung
[18] = system: OVCAR-4 ovarian
[19] = system: OVCAR-3 ovarian
[20] = system: EKVX NSCLC
[21] = system: MALME-3M melanoma
[22] = system: MDA-MB-435 melanoma
[23] = system: SNB-75 CNS
[24] = system: MCF7 breast
[25] = system: HS 578T breast
[26] = system: SF-295 CNS
[27] = system: IGROV1 ovarian
[28] = system: SNB-19 CNS
[29] = system: HL-60(TB) leukemia
[30] = system: OVCAR-8 ovarian
[31] = system: A549 NSCLC
[32] = system: HCT-116 colon
[33] = system: SW-620 colon
[34] = system: SK-OV-3 ovarian
[35] = system: HOP-92 NSCLC
[36] = system: HOP-62 NSCLC
[37] = system: 786-0 renal
[38] = system: MDA-MB-468 breast
[39] = system: ACHN renal
[40] = system: UACC-257 melanoma
[41] = system: SK-MEL-2 melanoma
[42] = system: CAKI-1 renal
[43] = system: SK-MEL-5 melanoma
[44] = system: MOLT-4 leukemia
[45] = system: COLO 205 colon
[46] = system: CCRF-CEM leukemia
[47] = system: M14 melanoma
[48] = system: BT-549 breast
[49] = system: NCI-H522 lung
[50] = system: RPMI-8226 leukemia
[51] = system: UACC-62 melanoma
[52] = system: NCI/ADR-RES ovarian
[53] = system: SF-539 CNS
[54] = system: HCT-15 colon
[55] = system: U251 glioblastoma
[56] = system: UO-31 renal
[57] = system: MDA-MB-231 breast
[58] = system: SR leukemia
[59] = system: OVCAR-5 ovarian
[60] = system: T-47D breast

`CC/C(=C(\c1ccccc1)c1ccc(OCCNC)cc1)c1ccccc1` showed a GI50 [1] of 2160 nM, a TGI [1] of 3.7 µM and a GI50 [2] of 1850 nM. For the same molecule, the TGI [2] was 3420 nM, the GI50 [3] was 1770 nM and the TGI [3] was 3.19 µM. It also gave a GI50 [4] of 1790 nM, a TGI [4] of 3210 nM and a GI50 [5] of 1980 nM. For the same molecule, the TGI [5] was 3510 nM, the GI50 [6] was 2070 nM and the TGI [6] was 3.52 µM. For the same molecule, the GI50 [7] was 1720 nM, the TGI [7] was 3.1 µM and the GI50 [8] was 2020 nM. It also gave a TGI [8] of 3470 nM, a GI50 [9] of 1830 nM and a TGI [9] of 3.25 µM. It also gave a GI50 [10] of 2260 nM, a TGI [10] of 4.24 µM and a GI50 [11] of 1990 nM. The TGI [11] was 3.47 µM, the GI50 [12] was 1660 nM and the TGI [12] was 3040 nM. The GI50 [13] was 1970 nM, the TGI [13] was 3.48 µM and the GI50 [14] was 2360 nM. It also gave a TGI [14] of 3930 nM, a GI50 [15] of 2150 nM and a TGI [15] of 4650 nM. The GI50 [16] was 2120 nM, the TGI [16] was 4070 nM and the GI50 [17] was 2130 nM. It also gave a TGI [17] of 3670 nM, a GI50 [18] of 2100 nM and a TGI [18] of 3.68 µM. It also gave a GI50 [19] of 1920 nM, a TGI [19] of 3400 nM and a GI50 [20] of 1920 nM. The TGI [20] was 3.67 µM, the GI50 [21] was 2150 nM and the TGI [21] was 3.61 µM. For the same molecule, the GI50 [22] was 2060 nM, the TGI [22] was 3.5 µM and the GI50 [23] was 2060 nM. For the same molecule, the TGI [23] was 3550 nM, the GI50 [24] was 1200 nM and the TGI [24] was 2.61 µM. It also gave a GI50 [25] of 1900 nM, a TGI [25] of 3320 nM and a GI50 [26] of 1880 nM. The TGI [26] was 3300 nM, the GI50 [27] was 1860 nM and the TGI [27] was 3.35 µM. The GI50 [28] was 2140 nM, the TGI [28] was 3640 nM and the GI50 [29] was 1580 nM. It also gave a TGI [29] of 2940 nM, a GI50 [30] of 1860 nM and a TGI [30] of 3.32 µM. The GI50 [31] was 1710 nM, the TGI [31] was 3.16 µM and the GI50 [32] was 1970 nM. The TGI [32] was 3.45 µM, the GI50 [33] was 1980 nM and the TGI [33] was 3.46 µM. The GI50 [34] was 1870 nM, the TGI [34] was 3300 nM and the GI50 [35] was 2050 nM. It also gave a TGI [35] of 3.51 µM, a GI50 [36] of 2350 nM and a TGI [36] of 3830 nM. It also gave a GI50 [37] of 1790 nM, a TGI [37] of 3.2 µM and a GI50 [38] of 2390 nM. The TGI [38] was 3870 nM, the GI50 [39] was 1850 nM and the TGI [39] was 3.3 µM. For the same molecule, the GI50 [40] was 2300 nM, the TGI [40] was 3.77 µM and the GI50 [41] was 1860 nM. For the same molecule, the TGI [41] was 3.28 µM, the GI50 [42] was 1530 nM and the TGI [42] was 2920 nM. For the same molecule, the GI50 [43] was 1690 nM, the TGI [43] was 3080 nM and the GI50 [44] was 1490 nM. For the same molecule, the TGI [44] was 2820 nM, the GI50 [45] was 1940 nM and the TGI [45] was 3.4 µM. The GI50 [46] was 1730 nM, the TGI [46] was 3130 nM and the GI50 [47] was 2070 nM. For the same molecule, the TGI [47] was 3520 nM, the GI50 [48] was 1820 nM and the TGI [48] was 3260 nM. The GI50 [49] was 1930 nM, the TGI [49] was 3360 nM and the GI50 [50] was 2290 nM. The TGI [50] was 3.76 µM, the GI50 [51] was 2160 nM and the TGI [51] was 3.63 µM. For the same molecule, the GI50 [52] was 2200 nM, the TGI [52] was 3.91 µM and the GI50 [53] was 2100 nM. It also gave a TGI [53] of 3560 nM, a GI50 [54] of 1820 nM and a TGI [54] of 3.27 µM. The GI50 [55] was 2160 nM and the TGI [55] was 3640 nM.
With `O=C(Nc1cn[nH]c1-c1nc2ccc(CN3CCOCC3)cc2[nH]1)NC1CC1` the GI50 [1] was 1290 nM, the TGI [1] was 3.48 µM and the GI50 [2] was 1030 nM. The TGI [2] was 2420 nM, the GI50 [3] was 75.3 nM and the TGI [3] was > 100 µM. For the same molecule, the GI50 [4] was 248 nM, the TGI [4] was 1120 nM and the GI50 [5] was 48.7 nM. For the same molecule, the TGI [5] was 1590 nM, the GI50 [56] was 111 nM and the TGI [56] was 1210 nM. It also gave a GI50 [6] of 1350 nM, a TGI [6] of 2.91 µM and a GI50 [7] of 289 nM. The TGI [7] was 6.65 µM, the GI50 [8] was 22.3 nM and the TGI [8] was 61.2 nM. It also gave a GI50 [10] of 651 nM, a TGI [10] of 70.4 µM and a GI50 [11] of 1040 nM. For the same molecule, the TGI [11] was 3.49 µM, the GI50 [12] was 1360 nM and the TGI [12] was 2810 nM. For the same molecule, the GI50 [13] was 299 nM, the TGI [13] was 13.9 µM and the GI50 [14] was 103 nM. The TGI [14] was 436 nM, the GI50 [15] was 85.8 nM and the TGI [15] was 273 nM. It also gave a GI50 [16] of 210 nM, a TGI [16] of 706 nM and a GI50 [17] of 88.2 nM. For the same molecule, the TGI [17] was 2030 nM, the GI50 [18] was 1120 nM and the TGI [18] was 5.39 µM. For the same molecule, the GI50 [19] was 156 nM, the TGI [19] was 382 nM and the GI50 [20] was 196 nM. It also gave a TGI [20] of 4.49 µM, a GI50 [21] of 1420 nM and a TGI [21] of 3.08 µM. The GI50 [22] was 1470 nM, the TGI [22] was 3.37 µM and the GI50 [23] was 38.1 nM. It also gave a TGI [23] of 113 nM, a GI50 [24] of 345 nM and a TGI [24] of 7.39 µM. The GI50 [25] was 33.6 nM, the TGI [25] was 73.5 nM and the GI50 [26] was 187 nM. For the same molecule, the TGI [26] was 1210 nM, the GI50 [27] was 633 nM and the TGI [27] was > 100 µM. For the same molecule, the GI50 [28] was 256 nM, the TGI [28] was 1730 nM and the GI50 [29] was 13 nM. The TGI [29] was 28.1 nM, the GI50 [31] was 800 nM and the TGI [31] was > 100 µM. For the same molecule, the GI50 [32] was 71 nM, the TGI [32] was > 100 µM and the GI50 [33] was 36.3 nM. The TGI [33] was > 100 µM, the GI50 [34] was 259 nM and the TGI [34] was 2280 nM. It also gave a GI50 [35] of 172 nM, a TGI [35] of 10.8 µM and a GI50 [57] of 322 nM. For the same molecule, the TGI [57] was 2540 nM, the GI50 [36] was 184 nM and the TGI [36] was 1390 nM. For the same molecule, the TGI [58] was 18.7 nM, the GI50 [37] was 261 nM and the TGI [37] was 10.2 µM. The GI50 [38] was 16.9 nM, the TGI [38] was 36.7 nM and the GI50 [39] was 413 nM. The TGI [39] was > 100 µM, the GI50 [40] was 2090 nM and the TGI [40] was 4.19 µM. For the same molecule, the GI50 [59] was 1810 nM, the TGI [59] was > 100 µM and the GI50 [42] was 71.8 nM. The TGI [42] was > 100000 nM, the GI50 [43] was 1260 nM and the TGI [43] was 2670 nM. For the same molecule, the TGI [46] was 28 nM, the GI50 [47] was 364 nM and the TGI [47] was 2210 nM. For the same molecule, the GI50 [48] was 58.7 nM, the TGI [48] was 386 nM and the GI50 [49] was 237 nM. It also gave a TGI [49] of 835 nM, a GI50 [53] of 168 nM and a TGI [53] of 453 nM. It also gave a GI50 [60] of 2200 nM, a TGI [60] of 6.04 µM and a GI50 [54] of 1540 nM. For the same molecule, the TGI [54] was 11.6 µM, the GI50 [55] was 228 nM and the TGI [55] was 1300 nM.

Reference: PubChem BioAssay (NCI)
